Experimental data taken from paper PMC5459853, “Cathepsin S inhibition combines control of systemic and peripheral pathomechanisms of autoimmune tissue injury” (Scientific Reports, 2017).
Where two headings read alike, the source gives them in different places.

Columns and labels:
[1] = molecular target: T1, Cat-S in human purified B-cells (Homo sapiens, UniProt P25774); experiment: lip10 (p10) accumulation assay in human purified B-cells (p10 ELISA); format: cell-based
T1 construct: Human B-cells were isolated from whole blood; endogenous in cells; host or cells: primary human CD19+ B cells from whole blood of healthy volunteers
T1 sequence (P25774 115-331): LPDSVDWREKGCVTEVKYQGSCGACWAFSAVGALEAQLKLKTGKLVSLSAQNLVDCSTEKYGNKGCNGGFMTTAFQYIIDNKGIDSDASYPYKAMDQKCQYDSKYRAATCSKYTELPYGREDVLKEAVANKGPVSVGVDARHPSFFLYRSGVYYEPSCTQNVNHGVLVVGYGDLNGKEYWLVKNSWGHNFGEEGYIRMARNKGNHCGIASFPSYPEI
Procedure: Human B-cells were isolated from whole blood using the Whole Blood CD19 Microbeads (Cat#130-090-880, Milteny) with the Whole Blood Column Kit (130-093-545, Milteny) according to the instruction leaflet. Isolated B-cells were adjusted to a cell density of 1 × 10^6 cells/ml in RPMI medium containing 10% FCS and 0.05 mM β-Mercaptoethanol (media and supplements are from Gibco). For each condition 100 µl of cell suspension was transferred into one well of a 96 well cell culture plate, respectively. For detection of p10, cells were treated with different concentrations of RO5459072 for 16 h in a cell culture incubator (37 °C; 5% CO2). Afterwards cells were lysed by adding 100 µl 2x NP-40 lysis buffer (20 mM Tris pH 8.0; 137 mM NaCl; 10% glycerol; 1% NP-40; 2 mM EDTA) containing HALT Protease inhibitor (Cat#78429, Pierce) for 30 min on ice. Before detection of accumulated p10-MHC-II complexes, interfering Ii-MHC-II associates were removed from the cell lysates. […] The CD74-18/3 antibody detects uncleaved invariant chain MHC-II complexes only. Afterwards p10-MHC-II complexes were analyzed by ELISA. For this purpose black Maxisorp plates from NUNC have been coated o/n with PIN.1 (5 µg/ml) from abcam (Cat#ab22603). The next day plates were blocked with blocking buffer for 1 h at 37 °C. Lysates containing 25,000 B-cells per condition were transferred to each well of the ELISA plate respectively and incubated together with the secondary antibody CD74-3/5-Biotin (15 ng/ml) o/n at 4 °C on a shaker. For signal amplification samples were incubated for 30 min with High Sensitive Streptavidin-HRP, 50 ng/ml (Cat#21134, Pierce). The amount of p10 was detected after 30 min of incubation with the QuantaBluTM Fluorogenic Substrate (Cat#15162, Pierce) at 325 nm excitation and 420 nm emission. In between each procedure of the ELISA assay the plates were washed twice with PBS−/− containing 0.05% TWEEN-20.
Supplementary figure 1. Biochemical and pharmacological profile of R05459072. (A)
Upregulation of invariant chain p10 levels in human B-cells was estimated by p10 ELISA, upon
treatment with increasing concentration of RO5459072.
upregulation in B-cells derived from 6 healthy volunteers. […]

[2] = molecular target: T2, Cat-S (splenic p10 induction) (Mus musculus, UniProt O70370); experiment: Acute in vivo pharmacodynamics: splenic p10 induction after oral gavage; set-up: species or system BALB/c mice
T2 construct: from tissue; host or cells: mouse spleen / splenocytes after oral dosing
Procedure: (§1) For the determination of in-vivo enzyme inhibition activity of Cat-S by RO5459072 BALB/c mice were used. After oral dosing of 0.1 mg/kg to 100 mg/kg of RO5459072, mice were sacrificed after 7 hours and spleens harvested. Invariant chain was quantified by western blot from mouse splenocyte supernatants loaded onto 10% SDS-PAGE gel. Upon transfer onto a nitrocellulose membrane rabbit anti-CD74 (BD Biosciences) was used.
(§2) Supplementary figure 1. Biochemical and pharmacological profile of R05459072. (A) Upregulation of invariant chain p10 levels in human B-cells was estimated by p10 ELISA, upon treatment with increasing concentration of RO5459072. […]
(§3) upregulation in B-cells derived from 6 healthy volunteers. (B) Determination of KM for the fluorogenic substrate Z-Phe-Arg-AMC. (C) Progress curves of hydrolysis of 10 µM Z-Phe-Arg-AMC by 10 nM Cat-S in the presence of no (black dots) or increasing concentration of RO5459072. A linear equation was fitted to the data to determine the slope (solid lines). […]
(§4) the residuals of the fit to the data. (D) Secondary plot of the slopes from panel B as function of RO5459072 concentration (dots with color coding from panel B). The Morrison equation was […]
(§5) active Cat-S converged to [E]0 = 6.9 nM). The dashed red lines indicate the 95 % confidence intervals of the fit to the data. (E) Pharmacodynamics of R05459072 was determined in C57Bl6 mice with increasing amounts of compound as single dose. Plasma levels of compounds were correlated to the upregulation of p10 in spleenocytes.
(§6) Supplementary figure 2. FACS gating strategies used for the different splenic immune cell populations. (A-C) Activated dendritic cells CD11c+CD11b+MHC-II, (D-F) activated macrophages CD11c+F480+MHC-II and (G-H) plasma cells CD138+κ-light chain+
(§7) Supplementary figure 3. Plasma IgG isotypes in MRL-(Fas)lpr mice. Plasma levels of IgG1 (A), IgG2a (B), and IgG2b (C) were determined by ELISA at different time points from the initiation (week 11) to the end of treatment (week 19). Data are expressed as means ± SEM (n=8 to 10 in […]

[3] = as above; set-up: species or system BALB/c mice; settings: BALB/c, mouse, plasma; oral gavage 1 mg/kg; read-out: plasma concentration of the inhibitor at maximal p10 induction
Procedure: as §1, §2, §3, §4, §5, §6, §7

[4] = test system: diversity panel consisting of nearly 100 receptor binding and enzymatic assays; experiment: Diversity panel of receptor binding and enzymatic assays; settings: 10 µM concentration; data not shown
Human Cat-V = Human Cat-V (Homo sapiens, UniProt O60911); experiment: Enzymatic isoform-selectivity assay, Cat-V; format: biochemical; settings: read-out: apparent IC50, Cat V
Human Cat-V, sequence (O60911 114-334): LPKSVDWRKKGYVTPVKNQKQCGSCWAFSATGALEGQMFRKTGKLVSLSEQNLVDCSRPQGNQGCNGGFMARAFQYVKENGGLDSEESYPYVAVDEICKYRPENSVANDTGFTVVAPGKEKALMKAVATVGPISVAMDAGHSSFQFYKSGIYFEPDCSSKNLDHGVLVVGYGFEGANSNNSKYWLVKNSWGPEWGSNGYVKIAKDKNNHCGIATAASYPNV
Procedure: RO5459072 was provided by F. Hoffmann-La Roche, Ltd., Basel, Switzerland. It is a competitive inhibitor of the active site of Cat-S and its nitrile function allows covalent reversible inhibition of Cat-S. The synthesis of RO5459072 has been described in WO 2010121918 and WO 2013068434. Recombinant cathepsins were produced in-house or were purchased from commercial vendors. Initial enzymatic assays to determine isoform-selectivity in vitro were performed as previously described, [23]. […] For this the Cat-S-dependent hydrolysis of the fluorogenic substrate Z-Phe-Arg-AMC (Sigma Aldrich) was followed at various inhibitor concentrations. The active fraction of Cat-S was detemined as 70% with a HPLC assay measuring modification of Cat-S with the covalent inhibitor LHVS. The buffer (100 mM potassium phosphate, 50 mM NaCl, 5 mM EDTA, 5 mM TCEP, pH 6) was thoroughly degassed prior to perfoming measurements to prevent oxidation of the catalytic cystein residue by dissolved oxygen. For the Ki-determination the substrate was employed at 10 µM = KM. All kinetic measurements were performad on a SFM-3000 stopped-flow instrument (Bio-Logic Science Instruments) and data were analyzed with GraphPad Prism v5.

Cn1cc(-c2ccc(S(=O)(=O)[C@@H]3C[C@@H](C(=O)NC4(C#N)CC4)N(C(=O)C4(C(F)(F)F)CC4)C3)c(C(F)(F)F)c2)cn1 [RO5459072]
EC50 ([1]; average of 6 healthy volunteers, 16 h treatment, read-out: EC50 of lip10 (p10) induction in human B-cells, average): 15.8 nM | EC50 ([1]; donor D1, read-out: EC50 of p10 upregulation in human B-cells, donor D1): 26.4 nM | EC50 ([1]; donor D2, read-out: EC50 of p10 upregulation in human B-cells, donor D2): 15.8 nM | EC50 ([1]; donor D3, read-out: EC50 of p10 upregulation in human B-cells, donor D3): 19.1 nM | EC50 ([1]; donor D4, read-out: EC50 of p10 upregulation in human B-cells, donor D4): 9.4 nM | EC50 ([1]; donor D5, read-out: EC50 of p10 upregulation in human B-cells, donor D5): 12.6 nM | EC50 ([1]; donor D6, read-out: EC50 of p10 upregulation in human B-cells, donor D6): 11.5 nM | dose of maximal splenic p10 induction ([2]; oral gavage, single doses 0.1–100 mg/kg, spleens after 7 hours): 1 mg/kg | EC50 ([2]; single oral dose, mice, read-out: p10/li in vivo EC50 (plasma level vs p10 upregulation in splenocytes)): 17 nM | concentration at 7 h [3]: 17 nM | inhibition on diversity panel [4]: ≤ 30% | IC50 (Human Cat-V): 700 nM
